Legend:
Assay type in all cases: functional
Details in all cases: read-out: IZ
Escherichia coli = assay: Antibacterial activity against Escherichia coli MTCC 443 at 1 ug/ml under overnight incubation condition by paper disc method
Pseudomonas aeruginosa = assay: Antibacterial activity against Pseudomonas aeruginosa MTCC 424 at 1 ug/ml under overnight incubation condition by paper disc method
Staphylococcus aureus = assay: Antibacterial activity against Staphylococcus aureus MTCC 96 at 1 ug/ml under overnight incubation condition by paper disc method
Bacillus subtilis = assay: Antibacterial activity against Bacillus subtilis MTCC 441 at 1 ug/ml under overnight incubation condition by paper disc method

SMILES | zone of inhibition at 1 µg/mL (Escherichia coli) | zone of inhibition at 1 µg/mL (Pseudomonas aeruginosa) | zone of inhibition at 1 µg/mL (Staphylococcus aureus) | zone of inhibition at 1 µg/mL (Bacillus subtilis)
Cc1nc(NC2OCCc3ccccc32)sc1-c1ccccc1 (stereo not given) | 2.5 mm | 3 mm | 2.5 mm | 2.5 mm
Fc1ccc2nc(NC3OCCc4ccccc43)sc2c1 (stereo not given) | 4 mm | 3 mm | 2.5 mm | 4.5 mm
FC(F)(F)c1ccc2nc(NC3OCCc4ccccc43)sc2c1 (stereo not given) | 2.5 mm | 2.5 mm | 2.5 mm | 2.5 mm
Brc1ccc2nc(NC3OCCc4ccccc43)sc2c1 (stereo not given) | 2.5 mm | 5 mm | 5 mm | 2.5 mm
CCOc1ccc2nc(NC3OCCc4ccccc43)sc2c1 (stereo not given) | 6.5 mm | 5 mm | 6 mm | 7.5 mm
Cc1ccc2nc(NC3OCCc4ccccc43)sc2c1 (stereo not given) | 2.5 mm | 2.5 mm | 2.5 mm | 2.5 mm
Fc1nc(NC2OCCc3ccccc32)sc1F (stereo not given) | 3 mm | 4 mm | 3 mm | 3 mm
O=[N+]([O-])c1ccc(NC2OCCc3ccccc32)cc1 (stereo not given) | 4.5 mm | 4 mm | 3 mm | 5 mm
c1ccc2c(c1)CCOC2Nc1nc2ccccc2s1 (stereo not given) | 2.5 mm | 3 mm | 3 mm | 2.5 mm
CC1COc2c(N3CCN(C)CC3)c(F)cc3c(=O)c(C(=O)O)cn1c23 (stereo not given) [OFLOXACIN] | 11 mm | – | – | 10 mm
Cc1cccc(NC2OCCc3ccccc32)n1 (stereo not given) | 3 mm | 6 mm | 4.5 mm | 4 mm
CCn1cc(C(=O)O)c(=O)c2cc(F)c(N3CCNCC3)cc21 [NORFLOXACIN] | – | 9.5 mm | 7 mm | –
Fc1ccc(-c2cnc(NC3OCCc4ccccc43)s2)cc1 (stereo not given) | 6 mm | 5 mm | 3 mm | 2.5 mm
Ic1ccc(NC2OCCc3ccccc32)nc1 (stereo not given) | 3.5 mm | 4.5 mm | 3 mm | 6 mm
COc1cccc2sc(NC3OCCc4ccccc43)nc12 (stereo not given) | 3 mm | 4 mm | 2.5 mm | 3 mm
Cc1cc(Br)cnc1NCCc1ccccc1C=O | 3.5 mm | 5 mm | 4 mm | 3 mm

Source: ChEMBL document CHEMBL4177727, “Synthesis and biological evaluation of 1-amino isochromans from 2-bromoethyl benzaldehyde and amines in acid medium” (2018)
